Source: patent US20030119022A1, “Recognition and cleavage at the DNA major groove” (priority 2001, published 2003)

Tests used:
[1] = test system: 5′-^32p end-labeled 514 bps restriction fragment from pBR322 DNA (Ecor I/ Rsa I); assay: Reductive cleavage of 32P-end labeled DNA restriction fragment, PAGE autoradiogram; type: biochemical
[2] = NaBH4 reductive activation, hydrolytic cleavage
[3] = NaBH4 reductive activation, piperidine cleavage

| SMILES | Cleavage Pattern ([1]; Piperidine cleavage, no reductive activation (sequencing reference lane)) | melting point [°C] | Cleavage Pattern [1, 2] | Cleavage Pattern [1, 3] |
| --- | --- | --- | --- | --- |
| COS(=O)(=O)OC [DMS, reference compound] | G & A |  |  |  |
| CCOC(=O)c1[nH]c2c(c1COC(C)=O)C(=O)C(OC)=CC2=O |  | 194 to 196 |  |  |
| CC(=O)OC1CCc2c1[nH]c1c2C(=O)C=C(N2CC2)C1=O (stereo not drawn) [reference compound] |  |  | No Significant Cleavage | G & T of 3′-GT- 5′ |
| COC1=CC(=O)c2[nH]c(COC(C)=O)c(COC(C)=O)c2C1=O [Compound 1d, 2,3-Diacetoxymethyl-5-methoxyindol-4,7-dione] |  | 179 to 181 | recognition occurs only at 3′-GGA-5′ with phosphate alkylation and cleavage occurring largely at the center G base | GT (5′ |
| CC(=O)OCc1[nH]c2c(c1C)C(=O)C(N1CC1)=CC2=O [reference compound] |  |  | Weak Cleavage | Some G & A |
| COC1=CC(=O)c2[nH]c3c(c2C1=O)CCC3OC(C)=O (stereo not drawn) [Compound 2b, 3-Acetoxy-7-methoxy-1,2,3,4-tetrahydrocyclopent[b]indole-5,8-dione] |  | 173 to 175 | No Significant | G & T of 3′-GT- |
